From patent US12060347B2 (BRISTOL-MYERS SQUIBB COMPANY, priority 2016, dated 2024)
Structures can show the parent of a compound that is named as a salt.

Target: T1, human PAR4 (Homo sapiens, UniProt Q96RI0)
T1 construct: expressed in transfected cells; host or cells: HEK293 PAR4 Clone 1.2A (BMS Arctic ID 383940)
T1 sequence (Q96RI0 18-385): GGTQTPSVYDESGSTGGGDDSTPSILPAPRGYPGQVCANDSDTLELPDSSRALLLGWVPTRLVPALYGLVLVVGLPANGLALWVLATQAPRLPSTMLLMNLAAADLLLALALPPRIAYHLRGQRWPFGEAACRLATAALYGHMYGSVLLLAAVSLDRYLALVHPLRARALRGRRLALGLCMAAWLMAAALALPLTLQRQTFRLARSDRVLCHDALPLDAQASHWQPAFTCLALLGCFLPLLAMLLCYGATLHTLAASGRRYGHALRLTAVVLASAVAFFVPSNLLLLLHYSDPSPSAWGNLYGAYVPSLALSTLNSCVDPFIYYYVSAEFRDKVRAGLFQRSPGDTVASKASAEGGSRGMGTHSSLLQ
Assay: PAR4 FLIPR assay: antagonism of agonist-peptide-induced calcium mobilization in PAR4-expressing HEK293 cells
Assay type: cell-based
Details: H-Ala-Phe(4-F)-[…]NH2-induced intracellular calcium mobilization, 11-point curves

Structure (SMILES) | IC50
COc1cnc2c(-c3nc4c(Cl)c(F)c(OC[C@@H](C)OC(=O)OCc5ccc(N)cn5)cc4s3)cc(C)cc2n1 [Example 596, (R)-(5-aminopyridin-2-yl)methyl (1-((4-chloro-5-fluoro-2-(2-methoxy-7-methylquinoxalin-5-yl)benzo[d]thiazol-6-yl)oxy)propan-2-yl) carbonate] | 130 nM
COc1ccc2[nH]c(-c3cc(C)cc4nc(OC(F)F)cnc34)nc2c1 [Example 50, 2-(difluoromethoxy)-5-(5-methoxy-1H-benzo[d]imidazol-2-yl)-7-methylquinoxaline] | 92 nM
COc1cnc2c(-c3nc4cc(F)c(O[C@@H](C)[C@@H](C)OC(=O)Nc5cnc(C)cn5)cc4s3)cc(C)cc2n1 [Example 417, (2R,3S)-3-((5-fluoro-2-(2-methoxy-7-methylquinoxalin-5-yl)benzo[d]thiazol-6-yl)oxy)butan-2-yl (5-methylpyrazin-2-yl)carbamate] | 11 nM
COc1cnc2c(-c3nc4c(C(F)(F)F)cc(OCCNS(=O)(=O)c5ccc(F)cc5)cc4s3)cc(C)cc2n1 [Example 90, 4-fluoro N-(2-(2-(2-methoxy-7-methylquinoxalin-5-yl)-4-(trifluoromethyl)benzo[d]thiazol-6-yloxy)ethyl)benzenesulfonamide] | 84 nM
COc1cc(C(F)C(C)(C)C)c2nc(-c3cc(C)cc4nc(OC)cnc34)sc2c1 (stereo not drawn) [Example 634, 4-(1-fluoro-2,2-dimethylpropyl)-6-methoxy-2-(2-methoxy-7-methylquinoxalin-5-yl)benzo[d]thiazole] | 44 nM
COc1cnc2c(-c3nc4cc(F)c(OC[C@@H](C)OC(=O)Nc5ccnc(OCCC(C)(C)O)c5)cc4s3)cc(C)cc2n1 [Example 567, (R)-1-((5-fluoro-2-(2-methoxy-7-methylquinoxalin-5-yl)benzo[d]thiazol-6-yl)oxy)propan-2-yl (2-(3-hydroxy-3-methylbutoxy)pyridin-4-yl)carbamate] | 5.9 nM
Cc1cc(-c2nc3ccccc3[nH]2)c2ncc(OC(F)F)nc2c1 [Example 47, 5-(1H-benzo[d]imidazol-2-yl)-2-(difluoromethoxy)-7-methylquinoxaline] | 34 nM
COc1cnc2c(-c3nc4cc(F)c(O[C@@H](C)[C@@H](C)OC(=O)Nc5cnc(OCCC(C)(C)O)nc5)cc4s3)cc(C)cc2n1 [Example 570, (2R,3S)-3-((5-fluoro-2-(2-methoxy-7-methylquinoxalin-5-yl)benzo[d]thiazol-6-yl)oxy)butan-2-yl (2-(3-hydroxy-3-methylbutoxy)pyrimidin-5-yl)carbamate] | 6.6 nM
COc1cc(C(O)C2(C)CCOCC2)c2nc(-c3cc(C)cc4nc(OC)cnc34)sc2c1 (stereo not drawn) [Example 674, (6-methoxy-2-(2-methoxy-7-methylquinoxalin-5-yl)benzo[d]thiazol-4-yl)(4-methyltetrahydro-2H-pyran-4-yl)methanol] | 20 nM
COc1cnc2c(-c3nc4cc(F)c(OC[C@@H](C)OC(=O)NCCC(N)=O)cc4s3)cc(C)cc2n1 [Example 352, (R)-1-((5-fluoro-2-(2-methoxy-7-methylquinoxalin-5-yl)benzo[d]thiazol-6-yl)oxy)propan-2-yl (3-amino-3-oxopropyl) carbamate] | 390 nM
Cc1cc(-c2nc3c(C)cc(OCCNS(=O)(=O)c4ccc(C(F)(F)F)cc4)cc3s2)c2ncc(OC(F)F)nc2c1 [Example 83, N-(2-(2-(2-(difluoromethoxy)-7-methylquinoxalin-5-yl)-4-methylbenzo[d]thiazol-6-yloxy)ethyl)-4-(trifluoromethyl)benzenesulfonamide] | 11 nM
COc1cnc2c(-c3cc4cc(OC)c(F)cc4o3)cc(C)cc2n1 [Example 120, 5-(6-fluoro-5-methoxybenzofuran-2-yl)-2-methoxy-7-methylquinoxaline] | 28 nM
Cc1cc(-c2nc3c(s2)CCC3)c2ncc(OC(F)F)nc2c1 [Example 136, 2-(2-(difluoromethoxy)-7-methylquinoxalin-5-yl)-5,6-dihydro-4H-cyclopenta[d]thiazole] | 29 nM

Results, then the compound that gave them:

IC50 | Structure (SMILES)
11 nM | COc1cnc2c(-c3nc4cc(F)c(O[C@@H](C)[C@@H](C)OC(=O)Nc5cnc(CO)nc5)nc4s3)cc(C)cc2c1 [Example 792, (2R,3S)-3-((6-fluoro-2-(3-methoxy-6-methylquinolin-8-yl)thiazolo[5,4-b]pyridin-5-yl)oxy)butan-2-yl (2-(hydroxymethyl)pyrimidin-5-yl)carbamate]
2.6 nM | COc1cnc2c(-c3nc4c(C(O)C(C)(C)C)cc(OC)nc4s3)cc(C)cc2n1 (stereo not drawn) [Example 807, 1-(5-methoxy-2-(2-methoxy-7-methylquinoxalin-5-yl)thiazolo[5,4-b]pyridin-7-yl)-2,2-dimethylpropan-1-ol]
7.2 nM | COc1cnc2c(-c3nc4c(C)cc(OC)cc4s3)cc(Cl)cc2c1 [Example 626, 2-(6-chloro-3-methoxyquinolin-8-yl)-6-methoxy-4-methylbenzo[d]thiazole]
7.9 nM | COc1cnc2c(-c3nc4c(C)cc(OCCNS(=O)(=O)c5ccc(F)cc5)cc4s3)cc(C(C)O)cc2n1 (stereo not drawn) [Example 239, 4-fluoro-N-(2-((2-(7-(1-hydroxyethyl)-2-methoxyquinoxalin-5-yl)-4-methylbenzo[d]thiazol-6-yl)oxy)ethyl)benzenesulfonamide]
1.2 nM | COCc1cnc2c(-c3nc4c(C(O)C5CCCCC5)cc(OC)cc4s3)cc(C)cc2n1 (stereo not drawn) [Example 165, Cyclohexyl(6-methoxy-2-(2-(methoxymethyl)-7-methylquinoxalin-5-yl)benzo[d]thiazol-4-yl)methanol]
3.2 nM | COc1cnc2c(-c3nc4cc(F)c(OC[C@@H](C)OC(=O)Nc5ccc(C(=O)NCCO)nc5)cc4s3)cc(C)cc2n1 [Example 445, (R)-1-((5-fluoro-2-(2-methoxy-7-methylquinoxalin-5-yl)benzo[d]thiazol-6-yl)oxy)propan-2-yl (6-((2-hydroxyethyl)carbamoyl)pyridin-3-yl)carbamate]
6.7 nM | COc1cnc2c(-c3nc4cc(F)c(OC[C@@H](C)OC(=O)Nc5cnc(C)nc5)cc4s3)cc(C)cc2n1 [Example 357, (R)-1-((5-fluoro-2-(2-methoxy-7-methylquinoxalin-5-yl)benzo[d]thiazol-6-yl)oxy)propan-2-yl (2-methylpyrimidin-5-yl)carbamate]
7.8 nM | COc1cnc2c(-c3nc4c(Cl)c(F)c(OCCO)cc4s3)cc(C)cc2n1 [Example 318, 2-((4-chloro-5-fluoro-2-(2-methoxy-7-methylquinoxalin-5-yl)benzo[d]thiazol-6-yl)oxy)ethanol]
1.6 nM | COc1cnc2c(-c3nc4cc(F)c(OC[C@@H](C)OC(=O)Nc5ccc(C(=O)N6CCC[C@@H](O)C6)nc5)cc4s3)cc(C)cc2n1 [Example 485, (R)-1-((5-fluoro-2-(2-methoxy-7-methylquinoxalin-5-yl)benzo[d]thiazol-6-yl)oxy)propan-2-yl (6-((R)-3-hydroxypiperidine-1-carbonyl)pyridin-3-yl)carbamate]
2.8 nM | COc1cnc2c(-c3nc4cc(F)c(OC[C@@H](C)OC(=O)Nc5ccc6[nH]c(=O)oc6c5)cc4s3)cc(C)cc2n1 [Example 350, (R)-1-((5-fluoro-2-(2-methoxy-7-methylquinoxalin-5-yl)benzo[d]thiazol-6-yl)oxy)propan-2-yl (2-oxo-2,3-dihydrobenzo[d]oxazol-6-yl)carbamate]
0.7 nM | COc1cnc2c(-c3nc4cc(F)c(O[C@@H](C)[C@@H](C)OC(=O)Nc5ccc(C#N)nc5)cc4s3)cc(C#N)cc2n1 [Example 828, (2R,3S)-3-((2-(7-cyano-2-methoxyquinoxalin-5-yl)-5-fluorobenzo[d]thiazol-6-yl)oxy)butan-2-yl (6-cyanopyridin-3-yl)carbamate]
1.5 nM | COCc1cnc2c(-c3nc4c(OC)c(F)c(OC)cc4s3)cc(C)cc2n1 [Example 271, 5-fluoro-4,6-dimethoxy-2-(2-(methoxymethyl)-7-methylquinoxalin-5-yl)benzo[d]thiazole]
6 nM | COc1cnc2c(-c3nc4cc(F)c(O[C@@H](C)[C@@H](C)OC(=O)Nc5ccc(CCO)nc5)nc4s3)cc(Cl)cc2c1 [Example 781, (2R,3S)-3-((2-(6-chloro-3-methoxyquinolin-8-yl)-6-fluorothiazolo[5,4-b]pyridin-5-yl)oxy) butan-2-yl (6-(2-hydroxyethyl)pyridin-3-yl)carbamate]
2.6 nM | COc1cnc2c(-c3nc4cc(F)c(O[C@@H](C)[C@@H](C)OC(=O)Nc5ccc(C(=O)O)nc5)cc4s3)cc(C)cc2n1 [Example 523, 5-(((((2R,3S)-3-((5-fluoro-2-(2-methoxy-7-methylquinoxalin-5-yl)benzo[d]thiazol-6-yl)oxy)butan-2-yl)oxy)carbonyl)amino)picolinic acid, TFA]
0.7 nM | COc1cnc2c(-c3nc4cc(F)c(OC[C@@H](C)OC(=O)Nc5ccc(C)nc5)cc4s3)cc(C)cc2n1 [Example 592, (R)-1-((5-fluoro-2-(2-methoxy-7-methylquinoxalin-5-yl)benzo[d]thiazol-6-yl)oxy)propan-2-yl (6-methylpyridin-3-yl)carbamate]
0.8 nM | COc1cnc2c(-c3nc4cc(F)c(O[C@@H](C)[C@@H](C)OC(=O)Nc5ccc(C(C)(C)O)nc5)nc4s3)cc(C)cc2n1 [Example 765, (2R,3S)-3-((6-fluoro-2-(2-methoxy-7-methylquinoxalin-5-yl)thiazolo[5,4-b]pyridin-5-yl)oxy)butan-2-yl (6-(2-hydroxypropan-2-yl)pyridin-3-yl)carbamate]
10 nM | COc1cnc2c(-c3nc4c(C)cc(OC)nc4s3)cc(CO)cc2n1 [Example 223, (3-methoxy-8-(5-methoxy-7-methylthiazolo[5,4-b]pyridin-2-yl)quinoxalin-6-yl)methanol]
